The subject of one series is Pimephales promelas. The following applies: chronic/long-term; duration: 110 days; reproduction.
A further series deals with Cyprinus carpio. The following applies: acute; duration: 96 hours; mortality.
Another series relates to Canidae. The following applies: subchronic; duration: 90 days; oral; M/F; Dog Other; body weight.
The test system of another series is Oryctolagus sp. The following applies: reproduction developmental; body weight.
The next series deals with Bibionidae. As to conditions: chronic/long-term.
A further series concerns Apis mellifera. As to conditions: acute, mortality.
The next series relates to Tagia sp. As to conditions: chronic/long-term; growth.
Another series deals with Aphidius rhopalosiphi. The series can be described thus: LR50; higher = less toxic. As to conditions: not reported; mortality.

Bounds are passed on as bounds.

What is called NOAEL is the highest dose or exposure tested at which no adverse effect was seen. As a reminder, the LC50 is the concentration lethal to half of the exposed cells or organisms. For `CC[C@H]1CCC[C@H](O[C@H]2CC[C@H](N(C)C)[C@@H](C)O2)[C@@H](C)C(=O)C2=C[C@@H]3[C@@H](C=C(C)[C@@H]4C[C@@H](O[C@@H]5O[C@@H](C)[C@H](OC)[C@@H](OC)[C@H]5OC)C[C@@H]34)[C@@H]2CC(=O)O1.CC[C@H]1CCC[C@H](O[C@H]2CC[C@H](N(C)C)[C@@H](C)O2)[C@@H](C)C(=O)C2=C[C@@H]3[C@@H](C=C[C@@H]4C[C@@H](O[C@@H]5O[C@@H](C)[C@H](OC)[C@@H](OC)[C@H]5OC)C[C@@H]34)[C@@H]2CC(=O)O1` [Spinosad], the NOEC in the series on Pimephales promelas turned out to be 0.217 mg/L; in the series with Bibionidae (duration: 25 days) it was 0.62 µg/L; in the series with Bibionidae (duration: 28 days), 0.0585 mg/kg; in the series on Tagia sp., 35.2 mg/kg. Further, the LD50 in the series on Rattus norvegicus (acute, oral, mortality) is > 2000 mg/kg-day; with Apis mellifera (dermal) it was 0.0036 µg/piece; with Apis mellifera (oral, unspecified), 0.057 µg/piece; with Colinus virginianus (acute, oral, mortality), > 2000 mg/kg-day; in the series on Anas platyrhynchos (acute, oral, unspecified, mortality) it was > 2000 mg/kg-day. For the same compound, the NOAEL in the series on Rattus norvegicus (chronic, duration: 2 years, oral, diet, M, Fischer 344, organ weight) turned out to be 2.4 mg/kg-day; in the series with Rattus norvegicus (reproduction developmental, M/F, reproduction), 10 mg/kg-day; with Canidae, 4.89 mg/kg-day; in the series on Oryctolagus sp. it was 10 mg/kg-day; in the series on Colinus virginianus (chronic), 68.5 mg/kg-day; with Anas platyrhynchos (chronic/long-term), 78.1 mg/kg-day. The same compound registered an LC50 with Cyprinus carpio of 4 µg/mL. Also, the LEL came out at 200 mg/kg-day in the series on Colinus virginianus (chronic, mortality) and 200 mg/kg-day with Anas platyrhynchos (chronic/long-term, mortality). For the same compound, in the series with Aphidius rhopalosiphi, the LR50 was determined as 0.371 g/ha.

Source of the values: EPA's ToxValDB 9.5 (doi:10.2903/j.efsa.2018.5252).
